Tests used:
Assay in all cases: relative viability (nuclei count vs DMSO), 5 days (fraction); higher = more cells survive
RO-3306 + Luminespib = compound: C1=CC2=C(C=CC(=C2)C=C3C(=O)NC(=NCC4=CC=CS4)S3)N=C1 [RO-3306] + CCNC(=O)c1noc(-c2cc(C(C)C)c(O)cc2O)c1-c1ccc(CN2CCOCC2)cc1 [Luminespib] (partner 0.01 µM)
In short: (§1)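 Relative viability was taken as the ratio of nuclei in treated wells to nuclei in vehicle wells. Lung cancer cell lines in 1536-well plates received compounds by pin tool one day after seeding, either one drug alone or a fixed anchor-drug dose plus five library-drug doses (not always all listed) in √10 steps. Nuclei were counted on 4× images after 5 days of treatment, and values are medians of duplicate plates.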

RO-3306 + OSI-027 = compound: C1=CC2=C(C=CC(=C2)C=C3C(=O)NC(=NCC4=CC=CS4)S3)N=C1 [RO-3306] + COc1cccc2cc(-c3nc([C@H]4CC[C@H](C(=O)O)CC4)n4ncnc(N)c34)[nH]c12 [OSI-027] (partner 0.5 µM)
In short: as §1

RO-3306 + Decitabine = compound: C1=CC2=C(C=CC(=C2)C=C3C(=O)NC(=NCC4=CC=CS4)S3)N=C1 [RO-3306] + Nc1ncn([C@H]2C[C@H](O)[C@@H](CO)O2)c(=O)n1 [Decitabine] (partner 2 µM)
In short: as §1

RO-3306 + Trametinib = compound: C1=CC2=C(C=CC(=C2)C=C3C(=O)NC(=NCC4=CC=CS4)S3)N=C1 [RO-3306] + CC(=O)Nc1cccc(-n2c(=O)n(C3CC3)c(=O)c3c(Nc4ccc(I)cc4F)n(C)c(=O)c(C)c32)c1 [Trametinib] (partner 0.02 µM)
In short: as §1

| Cell Line | relative viability (RO-3306 + Luminespib; first compound 0.01 µM) | relative viability (RO-3306 + Luminespib; first compound 0.03162 µM) | relative viability (RO-3306 + Luminespib; first compound 0.1 µM) | relative viability (RO-3306 + Luminespib; first compound 0.3162 µM) | relative viability (RO-3306 + Luminespib; first compound 1 µM) | relative viability (RO-3306 + OSI-027; first compound 0.01 µM) | relative viability (RO-3306 + OSI-027; first compound 0.03162 µM) | relative viability (RO-3306 + OSI-027; first compound 0.1 µM) | relative viability (RO-3306 + OSI-027; first compound 0.3162 µM) | relative viability (RO-3306 + OSI-027; first compound 1 µM) | relative viability (RO-3306 + Decitabine; first compound 0.01 µM) | relative viability (RO-3306 + Decitabine; first compound 0.03162 µM) | relative viability (RO-3306 + Decitabine; first compound 0.1 µM) | relative viability (RO-3306 + Decitabine; first compound 0.3162 µM) | relative viability (RO-3306 + Decitabine; first compound 1 µM) | relative viability (RO-3306 + Trametinib; first compound 0.01 µM) | relative viability (RO-3306 + Trametinib; first compound 0.03162 µM) | relative viability (RO-3306 + Trametinib; first compound 0.1 µM) | relative viability (RO-3306 + Trametinib; first compound 0.3162 µM) | relative viability (RO-3306 + Trametinib; first compound 1 µM) |
| --- | --- | --- | --- | --- | --- | --- | --- | --- | --- | --- | --- | --- | --- | --- | --- | --- | --- | --- | --- | --- |
| HCC-827 | 0.502 | 0.433 | 0.588 | 0.586 | 0.786 | 0.855 | 0.59 | 0.808 | 0.8 | 0.8 | 0.339 | 0.316 | 0.345 | 0.379 | 0.289 | 0.544 | 0.476 | 0.516 | 0.571 | 0.462 |
| HOP-62 | 1.02 | 0.926 | 0.976 | 0.925 | 0.894 | 0.827 | 0.593 | 0.727 | 0.89 | 0.8 | 0.229 | 0.239 | 0.207 | 0.222 | 0.249 | 0.433 | 0.383 | 0.384 | 0.398 | 0.36 |
| LC-2-ad | 1.01 | 0.907 | 0.966 | 1.09 | 1.02 | 0.863 | 0.735 | 0.781 | 0.932 | 0.849 | 0.869 | 0.776 | 0.743 | 0.785 | 0.759 | 0.961 | 0.848 | 0.945 | 0.908 | 0.852 |
| LCLC-97TM1 | 0.765 | 0.711 | 0.61 | 0.752 | 0.93 | 0.53 | 0.391 | 0.476 | 0.549 | 0.454 | 0.203 | 0.223 | 0.196 | 0.229 | 0.266 | 0.214 | 0.186 | 0.191 | 0.204 | 0.165 |
| LCLC-103H | 0.872 | 0.882 | 0.955 | 0.93 | 1.03 | 0.479 | 0.392 | 0.45 | 0.418 | 0.508 | 0.772 | 0.651 | 0.695 | 0.768 | 0.713 | 0.728 | 0.665 | 0.739 | 0.634 | 0.689 |
| LK-2 | 0.187 | – | 0.18 | 0.167 | 0.228 | 0.209 | – | 0.157 | 0.17 | 0.202 | 0.279 | 0.215 | 0.282 | 0.301 | 0.286 | 1.01 | 0.659 | 0.692 | 0.872 | 0.872 |
| LOU-NH91 | 0.348 | 0.298 | 0.312 | 0.28 | 0.291 | 0.686 | 0.712 | 0.711 | 0.719 | 0.686 | 0.829 | 0.787 | 0.796 | 0.823 | 0.79 | 0.829 | 0.735 | 0.75 | 0.76 | 0.742 |
| LU99A | 0.203 | 0.245 | 0.233 | 0.25 | 0.275 | 0.296 | 0.284 | 0.297 | 0.317 | 0.274 | 1.21 | 0.702 | 0.915 | 0.926 | 1 | 0.638 | 0.522 | 0.556 | 0.554 | 0.575 |
| LXF-289 | 0.766 | 0.654 | 0.593 | 0.603 | 0.577 | 0.801 | 0.778 | 0.681 | 0.739 | 0.63 | 0.377 | 0.36 | 0.387 | 0.333 | 0.424 | 0.741 | 0.63 | 0.647 | 0.673 | 0.695 |
| NCI-H23 | 0.237 | – | – | 0.216 | 0.204 | 0.531 | 0.462 | 0.575 | 0.519 | 0.403 | 0.338 | – | 0.334 | 0.341 | 0.301 | 0.344 | – | 0.352 | 0.388 | 0.375 |
| NCI-H322M | 0.801 | 0.708 | 0.907 | 0.943 | 0.835 | 0.535 | 0.527 | 0.532 | 0.571 | 0.503 | 0.591 | 0.675 | 0.721 | 0.717 | 0.762 | 0.561 | 0.445 | 0.515 | 0.54 | 0.531 |
| NCI-H358 | 0.408 | 0.292 | 0.376 | 0.316 | 0.229 | 0.587 | 0.658 | 0.79 | 0.741 | 0.59 | 0.204 | 0.208 | 0.216 | 0.206 | 0.182 | 0.131 | 0.131 | 0.127 | 0.135 | 0.12 |
| NCI-H441 | 0.248 | 0.317 | 0.279 | 0.313 | 0.315 | 0.555 | 0.506 | 0.541 | 0.617 | 0.534 | 0.216 | 0.211 | 0.253 | 0.277 | 0.244 | 0.451 | 0.341 | 0.368 | 0.439 | 0.428 |
| NCI-H460 | 0.033 | 0.029 | 0.0336 | 0.0289 | 0.0305 | 0.613 | 0.492 | 0.654 | 0.835 | 0.605 | 0.52 | 0.44 | 0.509 | 0.645 | 0.462 | 0.162 | 0.115 | 0.139 | 0.223 | 0.128 |
| NCI-H1563 | 0.516 | 0.519 | 0.6 | 0.533 | 0.507 | 0.671 | 0.733 | 0.736 | 0.735 | 0.725 | – | – | – | – | – | – | – | – | – | – |
| NCI-H1623 | 0.574 | 0.451 | 0.617 | 0.471 | 0.5 | 0.408 | 0.384 | 0.45 | 0.368 | 0.405 | – | – | – | – | – | – | – | – | – | – |
| NCI-H1648 | – | – | – | – | – | 0.247 | – | 0.289 | 0.249 | 0.241 | 0.545 | – | 0.357 | 0.47 | 0.472 | 0.482 | – | 0.47 | 0.538 | 0.404 |
| NCI-H2228 | 0.2 | 0.148 | 0.147 | 0.14 | 0.255 | 0.652 | 0.411 | 0.557 | 0.685 | 0.429 | – | – | – | – | – | 0.541 | 0.43 | 0.436 | 0.62 | 0.281 |
